Experimental data: publication PMC4806436, “Disrupted ADP-ribose metabolism with nuclear Poly (ADP-ribose) accumulation leads to different cell death pathways in presence of hydrogen peroxide in procyclic Trypanosoma brucei” (Parasites & Vectors, 2016)
pIC50, pKi: −log10 of the molar value. Entries after “also recorded” stand apart in the source; their conditions may differ. Where two headings read alike, the source gives them in different places. Values belong to the molecule of their own block, whether it stands above or below them.

Key:
[1] = test system: hPARP-1; details: cited from earlier work
[2] = biological target: TbPARP (Trypanosoma brucei brucei, UniProt Q0PW89); assay: biochemical; details: 500 nM NAD+, 11 min at 25 °C, mean of three dose-response curves; for IC50: read-out: TbPARP pIC50 ± SEM (converted)
Description: The optimal conditions for the activity of purified recombinant TbPARP, were determined by using a fluorometric activity assay. Incubation at 25 °C with shaking at 300 rpm was placed in propylene plates of 96 wells (Greiner BioOne). To terminate the reaction 2 M KOH (20 μL) and 20 % acetophenone in ethanol (20 μL) were added to each well. After incubating for 10 min at 4 °C, 90 μl of 88 % formic acid was added and incubated in an oven at 110 °C for 5 min. This reaction converts remaining NAD^+ to a fluorescent derivative. After incubation, the plate was allowed to cool down for 15 min and fluorescence was measured using excitation wavelengths of 372 nm and 444 nm for excitation and emission, respectively (Varioskan Flash 4.00.53, Thermo Scientific). Consumption of NAD^+ was detected by the decrease in fluorescence. Experiments were done in triplicates. The activity in control wells were kept under 25 % by optimizing the protein concentration and the incubation time, in order to get a robust signal without slowing down the enzyme activity.
A small set of cations was also tested in order to verify whether the enzymatic activity would depend on them. […] The final assay buffer was 100 mM Na2HPO4/NaH2PO4 pH 7, 500 μM TCEP, 1 μg/μL BSA, and 0.025 mg/mL activated DNA (Sigma Aldrich) and 500 nM NAD^+ (Sigma Aldrich).
Thirty - one compounds were tested. Dilutions from DMSO stocks were made (100 μM, 10 μM and 1 μM) and aliquots of those were used in the enzymatic reaction with 10-fold dilution. Inhibitor solutions were added in triplicates to the plate, followed by the addition of the NAD^+. Reactions were initiated by addition of TbPARP diluted in the same buffer (10 nM). The plate was incubated at 25 °C with shaking (300 rpm, Biosan PST-100 HL) for 45 min. […] To detect any potential fluorescence inherent in the compounds, control reactions were carried out separately with compound alone at 10 μM final concentration. The possible fluorescence quenching properties were controlled using wells within the experimental plate containing the compound with 500 nM NAD^+ in the assay buffer.
The IC50 value for 3-AB (Alexis Biochemicals) was also determined to be used as a reference. Briefly, reaction mix together with the inhibitors at half log dilutions were added to a 96-well plate (10 data points). Reactions were incubated for 11 min at 25 °C after initiating the reaction with the addition of 5 nM TbPARP at a final volume of 50 μL. Measurement of the remaining NAD^+ is described in section Screening of TbPARP inhibitors. All reactions were performed in triplicates and three independent dose response curves were fitted for each inhibitor. Control wells with only NAD^+ or NAD^+ and enzyme were used in the curve fitting, as detailed in our previous work.

[3] = test system: T. cruzi epimastigotes; details: cited from earlier work
[4] = test system: Trypanosoma brucei bloodstream parasites; assay: Effect of inhibitors on bloodstream parasite growth (Neubauer count, 24 h); assay type: cell-based; details: Olaparib 29 nM, Rucaparib 1.5 μM, 3-AB 580 μM, Nifurtimox 2.5 μM
Description: Trypanosoma brucei bloodstream parasites were grown in HMI-11 medium for 24 h until reaching a density of 5×10^5 cells/mL. Aliquots of 100 μL were distributed in 96-well plates and inhibitors were added at different concentrations as indicated in the figures. After an incubation period of 24 h, the parasite number was counted with a Neubauer chamber. In all experiments, triplicates were done for each condition tested and data significance was assessed by one-way Anova (GraphPad Prism5.03 version Software).

[5] = test system: PAR formation in procyclic T. brucei; assay: In culture inhibition of PAR formation after H2O2, Dot blot, procyclic form; assay type: cell-based, Trypanosoma brucei; details: for reduction of PAR synthesis in the parasite: discussion, parasite form not given; for inhibition of PAR formation in culture, procyclic form: inhibitor at 10-fold in vitro IC50 (0.23 μM 4-ANI; 65 nM EB-47; 29 nM Olaparib; 1.5 μM Rucaparib), 30 min preincubation, 500 μM H2O2 10 min
Description: (§1) T. brucei procyclic strain 29–13 [29] was cultured at 28 °C in SDM-79 (Bioscience) containing 10 % (v/v) FCS and 0002 % hemin. T. brucei bloodstream strain 427 90-13 [29] was cultured at 37 °C in HMI-11 (Iscore’s Modified Dulbecco’s Medium (Invitrogen), 100 mg/L sodium pyruvate, 136.1 mg/L hypoxantine, 38.7 mg/L thymidine, 28.22 mg/L bathocuproinedisulfonic acid, 181.8 mg/L L-cysteine, 3.024 mg/L sodium carbonate, 196 μM β-mercaptoethanol) containing FCS (10 % v/v). Parasite viability was analyzed by microscopy.
(§2) For in culture inhibition assays, parasites of the procyclic form of Trypanosoma brucei were grown for 48 h up to a density of 5×10^6 parasites/mL. Parasites of the bloodstream form were grown for 24 h up to a density of 5×10^5 parasites/mL. In both cases, cells were harvested and preincubated for 30 min or 10 min in PBS-Glucose 2 % with inhibitors added, after which the parasites were treated with 500 μM or 250 μM hydrogen peroxide for procyclic and bloodstream forms, respectively, for 10 min.

[6] = test system: Trypanosoma brucei procyclic parasites; assay: Effect of inhibitors on procyclic parasite growth (OD600, 48 h); assay type: cell-based; details: 2.5 μM, 48 h, positive control
Description: Trypanosoma brucei procyclic parasites were grown in SDM-79 medium for 48 h until reaching a density of 5×10^6 cells/mL. Aliquots of 200 μl were distributed in 96-well plates and inhibitors were present at different final concentrations, as indicated in the figures. Nifurtimox (NFX) was used as a positive control in concentrations ranging from 0.25–25 μM. Culture density was checked by OD600 after 48 h.
In all experiments, triplicates were done for each condition tested and data significance was assessed by one-way Anova (GraphPad Prism5.03 version Software).

[7] = test system: PAR formation in bloodstream T. brucei; assay: In culture inhibition of PAR formation after H2O2, Dot blot, bloodstream form; assay type: cell-based, Trypanosoma brucei; details: inhibitor at 10-fold in vitro IC50 (29 nM Olaparib; 1.5 μM Rucaparib), 10 min preincubation, 250 μM H2O2
Description: as §1, §2

[8] = test system: RNAi-TbPARP procyclic parasites; assay: Growth of Tet induced RNAi-TbPARP procyclic parasites with inhibitor; assay type: cell-based, Trypanosoma brucei; details: 290 nM inhibitor
From the text: A fragment of the TbPARP cDNA (nucleotides 1030 to 1445) [GenBank:DQ679800, Tb927.5.3050] and a fragment of the TbPARG cDNA (nucleotides 593 to 979) [Tb927.9.12810] were sub-cloned into the tetracycline-inducible expression vector p2T7^TI-177 [30] to down-regulate the genes of interest. In addition, whole TbPARP cDNA sequence was sub-cloned into the expression vector p2216 [31] (PCR primer sequences available upon request) to over-express the PARP-eYFP fusion gene.
Not I-linearized RNAi-TbPARP and RNAi-TbPARG constructs and the over-expression construct (10 μg) were transfected into procyclic parasites by electroporation, as described by Downey et al.. The selection of the transfectants was carried out with 20 μg/mL zeocin, and dsRNA and over-expression of the fusion protein was induced with 1.0 μg/mL tetracycline for 3 days.

[9] = test system: T. brucei procyclic parasites; assay: Cell survival (motility) after H2O2 treatment with PARP inhibitor; details: 29 nM inhibitor
Description: Cell survival was determined by incubating 500 μL of 1 × 10^6 parasites/mL culture in 24-well cell culture plates (Cellstar) for 6 h with different concentrations of H2O2 (30 μM, 95 μM, 300 μM and 950 μM) and counting motile parasites over the total number using a Neubauer chamber. Each condition was tested in triplicates. Statistical significance was assessed with two-way Anova followed by Bonferroni test (version 5.03 of GraphPad Prism for Windows).

[10] = test system: wild type procyclic parasites; assay: Annexin V / PI flow cytometric cell death analysis; assay type: cell-based, Trypanosoma brucei; details: 10 μg/mL, apoptosis-like positive control
Description: Parasites were treated with 1 mM H2O2 for different time intervals and the cell death pathway involved was assessed as it has been detailed in our previous work. The exposure of wild type procyclic parasites for 6 and 12 h to 10 μg/mL Concanavalin A type IV (Sigma-Aldrich) confirmed the apoptosis-like death pathway (positive control). […] Results were analyzed with Cyflogic v 1.2.1 software.

[11] = 5 nM TbPARP, read-out: TbPARP IC50

Chain of TbPARP (Q0PW89 entry or part of it): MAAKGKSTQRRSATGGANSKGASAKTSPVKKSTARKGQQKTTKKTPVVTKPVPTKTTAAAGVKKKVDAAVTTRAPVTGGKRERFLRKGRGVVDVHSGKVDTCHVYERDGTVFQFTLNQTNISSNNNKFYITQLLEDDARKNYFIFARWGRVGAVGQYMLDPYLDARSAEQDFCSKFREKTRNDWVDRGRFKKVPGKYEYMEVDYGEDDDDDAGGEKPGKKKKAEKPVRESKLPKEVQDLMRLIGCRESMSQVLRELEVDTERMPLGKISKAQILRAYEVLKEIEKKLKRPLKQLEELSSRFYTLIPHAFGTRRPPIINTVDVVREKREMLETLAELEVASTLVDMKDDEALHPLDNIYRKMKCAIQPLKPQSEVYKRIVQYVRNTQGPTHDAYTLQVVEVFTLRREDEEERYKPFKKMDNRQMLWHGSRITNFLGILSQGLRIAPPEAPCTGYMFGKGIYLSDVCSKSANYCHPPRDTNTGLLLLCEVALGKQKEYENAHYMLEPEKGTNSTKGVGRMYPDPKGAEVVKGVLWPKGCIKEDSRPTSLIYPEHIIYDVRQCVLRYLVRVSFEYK

Molecule: O=c1[nH]ccc2c(O)cccc12 [1,5-Isoquinolinediol, 5-hydroxy-1,2-dihydroisoquinolin-1-one]
- pIC50 ([1]; reported for human PARP-1): 6.41
- pIC50 [2, 11]: 5.92
- IC50 ([2]; 5 nM TbPARP): 1230 nM

Molecule: NC(=O)c1cccc(N)c1 [Compound 3-AB, 3-aminobenzamide]
- effect on T. cruzi growth ([3]; reported earlier, reference not given): reported to diminish T. cruzi growth
- pIC50 ([1]; reported for human PARP-1): 4.66
- pIC50 [2, 11]: 4.24
- IC50 ([2]; 5 nM TbPARP): 57500 nM
- effect on bloodstream parasite growth [4]: did provoke a decrease on bloodstream parasite growth

Molecule: Nc1ccc2c3c(cccc13)C(=O)NC2=O [Compound 4-ANI, 8-amino-3-azatricyclo[7.3.1.0^{5,13}]trideca-1(12),5,7,9(13),10-pentaene-2,4-dione]
- pIC50 [1]: 6.74
- pIC50 [2, 11]: 7.64
- IC50 ([2]; 5 nM TbPARP): 22.9 nM
- reduction of PAR synthesis in the parasite [5]: not able to reduce PAR synthesis in the parasite
- inhibition of PAR formation in culture, procyclic form [5]: scarcely inhibited the enzyme

Molecule: Nc1ncnc2c1ncn2[C@@H]1O[C@H](C(=O)N2CCN(CC(=O)Nc3cccc4c3CNC4=O)CC2)[C@@H](O)[C@H]1O [EB-47, 2-(4-{[(2S,3S,4R,5R)-5-(6-amino-9H-purin-9-yl)-3,4-dihydroxyoxolan-2-yl]carbonyl}piperazin-1-yl)-N-(1-oxo-2,3-dihydro-1H-isoindol-4-yl)acetamide]
- pIC50 [2, 11]: 8.19
- IC50 ([2]; 5 nM TbPARP): 6.46 nM
- reduction of PAR synthesis in the parasite [5]: not able to reduce PAR synthesis in the parasite
- inhibition of PAR formation in culture, procyclic form [5]: did not inhibit TbPARP at all

Molecule: CC1CS(=O)(=O)CCN1/N=C/c1ccc([N+](=O)[O-])o1 (stereo not shown) [Nifurtimox]
- effect on procyclic parasite growth [6]: slowed down procyclic parasite growth
- effect on bloodstream parasite growth [4]: did provoke a decrease on bloodstream parasite growth

Molecule: O=C(c1cc(Cc2n[nH]c(=O)c3ccccc23)ccc1F)N1CCN(C(=O)C2CC2)CC1 [Olaparib, 4-({3-[(4-cyclopropanecarbonylpiperazin-1-yl)carbonyl]-4-fluorophenyl}methyl)-1,2-dihydrophthalazin-1-one]
- inhibition of PAR formation in culture, bloodstream form [7]: able to inhibit PAR formations in culture; also recorded: able to reduce PAR formation
- growth rate of Tet induced RNAi-TbPARP procyclic parasites [8]: no change in growth rate
- parasite viability (motility) in presence versus absence of inhibitor ([9]; 30 μM H2O2, 6 h): no difference in parasite viability
- parasite viability (motility) in presence versus absence of inhibitor ([9]; 95 μM H2O2, 6 h): reduced the loss of viability induced by the oxidant
- parasite motility in presence versus absence of inhibitor ([9]; 300 μM H2O2, 6 h, not statistically significant): slight protective effect
- decrease in growth of T. cruzi epimastigotes in culture ([3]; 25 nM): 50%
- pIC50 [2, 11]: 8.54
- IC50 ([2]; 5 nM TbPARP): 2.95 nM
- inhibition of PAR formation in culture, procyclic form [5]: inhibited PAR formation in culture; also recorded: able to reduce PAR formation
- effect on bloodstream parasite growth [4]: not able to significantly affect T. brucei growth or survival

Molecule: C[C@]1(c2nc3c(C(N)=O)cccc3[nH]2)CCCN1 [Veliparib, 2-[(2R)-2-methylpyrrolidin-2-yl]-1H-1,3-benzodiazole-4-carboxamide]
- pKi [1]: 8.30
- pIC50 [2, 11]: 7.31
- IC50 ([2]; 5 nM TbPARP): 49 nM

Molecule: Concanavalin A
- cell death pattern (Annexin V incorporation) [10]: typical apoptosis response with an increment in Annexin incorporation

Second part, led by results:

- pIC50 ([2]; TbPARP IC50, […] nM TbPARP): 6.17
- pIC50 ([2]; TbPARP pIC50 ± SEM, 5 nM TbPARP): 6.17
Molecule: Cc1nc(=O)c2cccc(O)c2[nH]1 [NU1025, 8-hydroxy-2-methyl-1,4-dihydroquinazolin-4-one]
- pIC50 ([1]; reported for human PARP-1): 6.40

- pIC50 [2, 11]: 6.24
- IC50 ([2]; 5 nM TbPARP): 589 nM
Molecule: CN(C)CC(=O)Nc1ccc2[nH]c(=O)c3ccccc3c2c1 [PJ-34, 2-(dimethylamino)-N-(6-oxo-5,6-dihydrophenanthridin-2-yl)acetamide]

- pIC50 [2, 11]: 5.96
- IC50 ([2]; 5 nM TbPARP): 1150 nM
Molecule: Oc1nc(C2CC2)nc2c1CSCC2 [RF03876, 2-cyclopropyl-5H,7H,8H-thiopyrano[4,3-d]pyrimidin-4-ol]
